Patent US20100267795A1, “NITROSUBSTITUTED ARYLOXYALKYLIMIDAZOLINES FOR USE AS PESTICIDES” (SYNGENTA CROP PROTECTION, INC., priority 2007, published 2010)

How the values were obtained:
Type in all cases: in vivo
[1] = tested on: Myzus persicae (green peach aphid); test: Myzus persicae (green peach aphid) pea seedling root uptake test; conditions: for control (mortality): 24 ppm test solution, roots of infested pea seedlings, 6 days after introduction; for mortality at 24 ppm: Myzus persicae, 144 h, read-out: control (mortality)
Excerpt: Roots of pea seedlings, infested with an aphid population of mixed ages, were placed directly in the test solutions of 24 ppm. 6 days after introduction, samples were checked for mortality. The following compounds gave 100% control: 1.004 and 1.012. The following compounds gave 80% control: 1.001, 1.002, 1.009, 1.013 and 1.016. The following compound gave 50% control: 1.003.

[2] = tested on: Tetranychus urticae (two-spotted spider mite); test: Tetranychus urticae (two-spotted spider mite) bean leaf disc spray test; conditions: for mortality at 200 ppm: Tetranychus urticae, foliar, 192 h, read-out: control (egg mortality, larval mortality, adult mortality)
Excerpt: Bean leaf discs on agar in 24-well microtiter plates wer sprayed with test solutions at an application rate of 200 ppm. After drying, the leaf discs are infested with mite populations of mixed ages. 8 days later, discs are checked for egg mortality, larval mortality, and adult mortality. The following compounds gave 100% control: 1.001, 1.002, 1.003, 1.004, 1.006, 1.008, 1.009, 1.010, 1.012, 1.013, 1.014, 1.016, 1.017 and 1.018. The following compound gave 50% control: 1.011.

[3] = tested on: Myzus persicae (green peach aphid); test: Myzus persicae (green peach aphid) sunflower leaf disc spray test; conditions: for mortality at 200 ppm: Myzus persicae, foliar, 144 h, read-out: control (mortality); for control (mortality): 200 ppm spray on sunflower leaf discs, aphid population of mixed ages, 6 DAT
Method: Sunflower leaf discs were placed on agar in a 24-well microtiter plate and sprayed with test solutions at an application rate of 200 ppm. After drying, the leaf discs were infested with an aphid population of mixed ages. After an incubation period of 6 DAT, samples were checked for mortality. The following compounds gave 100% control: 1.001, 1.002, 1.003, 1.004, 1.005, 1.006, 1.008, 1.009, 1.012, 1.013, 1.014, 1.016, 1.017 and 1.018. The following compounds gave 80% control: 1.007 and 1.011. The following compound gave 50% control: 1.010

[4] = tested on: Heliothis virescens (tobacco budworm); test: Heliothis virescens (tobacco budworm) egg/larva test on artificial diet; conditions: for control (egg mortality, larval mortality, growth regulation): 200 ppm by pipetting, eggs 0-24 h old on artificial diet, 4 days incubation; for mortality at 200 ppm: Heliothis virescens, read-out: control (egg mortality, larval mortality, growth regulation)
Method: Eggs (0-24 h old) were placed in 24-well microtiter plate on artificial diet and treated with test solutions at an application rate of 200 ppm by pipetting. After an incubation period of 4 days, samples were checked for egg mortality, larval mortality, and growth regulation. The following compounds gave 100% control: 1.003 and 1.009. The following compounds gave 80% control: 1.001, 1.004, 1.005, 1.008 and 1.016. The following compounds gave 50% control: 1.013 and 1.017.

**Q.** `Cc1c(OC(C2=NCCN2)C(C)C)cccc1[N+](=O)[O-]` (stereo not drawn) [Compound 1.002] was tested. Which “control (mortality)” value [1] did it give?
**A.** The value was 80%.

**Q.** How did the mortality at 24 ppm [1] turn out when `COCC(Oc1cccc([N+](=O)[O-])c1C)C1=NCCN1` (stereo not drawn) [Compound 1.012, 2-[2-Methoxy-1-(2-methyl-3-nitro-phenoxy)-ethyl]-4,5-dihydro-1H-imidazole] was run?
**A.** Its mortality at 24 ppm is 100%.

**Q.** And the mortality at 200 ppm [2]?
**A.** Its mortality at 200 ppm is 100%.

**Q.** What about the mortality at 200 ppm [3] of the same compound?
**A.** The mortality at 200 ppm was 100%.

**Q.** For `CCC(Oc1cccc([N+](=O)[O-])c1C)C1=NCCN1C(=O)OC(C)(C)C` (stereo not drawn) [Compound 1.007], which “control (mortality)” value [3] is on record?
**A.** Its value is 80%.

**Q.** With `Cc1c(OC(C2=NCCN2)C2CC2)cccc1[N+](=O)[O-]` (stereo not drawn) [Compound 1.003] as the compound, how does the “control (mortality)” value [1] read?
**A.** Its value is 50%.

**Q.** And the “control (egg mortality, larval mortality, growth regulation)” value [4]?
**A.** The value was 100%.

**Q.** Which “control (mortality)” value [1] does the source give for `C=CCC(Oc1cccc([N+](=O)[O-])c1C)C1=NCCN1` (stereo not drawn) [Compound 1.013] here?
**A.** Its value is 80%.

**Q.** And the “control (egg mortality, larval mortality, growth regulation)” value [4]?
**A.** The value was 50%.

**Q.** What does the source list for `CCC(Oc1cccc([N+](=O)[O-])c1Cl)C1=NCCN1C(=O)OC(C)(C)C` (stereo not drawn) [Compound 1.011]?
**A.** control (egg mortality, larval mortality, adult mortality) ([2]; 200 ppm spray on bean leaf discs, mite populations of mixed ages, 8 days): 50%; control (mortality) [3]: 80%

**Q.** With `CCC(Oc1cccc([N+](=O)[O-])c1C)C1=NCCN1` (stereo not drawn) [Compound 1.001] as the compound, how does the “control (mortality)” value [1] read?
**A.** Its value is 80%.

**Q.** What about the “control (egg mortality, larval mortality, growth regulation)” value [4] of the same compound?
**A.** The value was 80%.

**Q.** Which results are given for `CCCC(Oc1cccc([N+](=O)[O-])c1Cl)C1=NCCN1` (stereo not drawn) [Compound 1.009]?
**A.** control (mortality) [1]: 80%; control (egg mortality, larval mortality, growth regulation) [4]: 100%

**Q.** For `COCC(Oc1cccc([N+](=O)[O-])c1Cl)C1=NCCN1` (stereo not drawn) [Compound 1.017], which “control (egg mortality, larval mortality, growth regulation)” value [4] is on record?
**A.** The value was 50%.

**Q.** Which results are given for `C=CCC(Oc1cccc([N+](=O)[O-])c1Cl)C1=NCCN1` (stereo not drawn) [Compound 1.016, 2-[1-(2-Chloro-3-nitro-phenoxy)-but-3-enyl]-4,5-dihydro-1H-imidazole]?
**A.** mortality at 24 ppm [1]: 80%; mortality at 200 ppm [2]: 100%; mortality at 200 ppm [4]: 80%; mortality at 200 ppm [3]: 100%

**Q.** Which results are given for `CCC(Oc1cccc([N+](=O)[O-])c1Cl)C1=NCCN1` (stereo not drawn) [Compound 1.008, 2-[1-(2-Chloro-3-nitro-phenoxy)-propyl]-4,5-dihydro-1H-imidazole]?
**A.** mortality at 200 ppm [2]: 100%; mortality at 200 ppm [4]: 80%; mortality at 200 ppm [3]: 100%

**Q.** How did the “control (egg mortality, larval mortality, growth regulation)” value [4] turn out when `CCCCC(Oc1cccc([N+](=O)[O-])c1C)C1=NCCN1` (stereo not drawn) [Compound 1.005] was run?
**A.** Its value is 80%.

**Q.** With `CCCC(Oc1cccc([N+](=O)[O-])c1Cl)C1=NCCN1C(=O)OC(C)(C)C` (stereo not drawn) [Compound 1.010] as the compound, how does the “control (mortality)” value [3] read?
**A.** The value was 50%.

**Q.** Which “control (mortality)” value [1] does the source give for `CCCC(Oc1cccc([N+](=O)[O-])c1C)C1=NCCN1` (stereo not drawn) [Compound 1.004] here?
**A.** Its value is 100%.

**Q.** And the “control (egg mortality, larval mortality, growth regulation)” value [4]?
**A.** The value was 80%.
